# Key:
# HSV-1 (Wal strain) = test: Experimental skin infection of mice with HSV-1, ointment treatment; format: in vivo, mice (Balb-C strain); conditions: HSV-1-infected Balb-C mice, 5% ointment twice daily from day 4 after infection; for survival: 14 days, placebo: 3 of 10 survived
# Method: One part (by weight) D609, one part (by weight) potassium salt of decanoic acid, and four parts (by weight) cholesterol were mixed in a mortar. Subsequently, propyleneglycol (final concentration 10%) and vaseline were added such that the final concentration of D609 was 5%. The same procedure was used to produce ointments containing 5% aciclovir or 5% D609 and 5% aciclovir. A placebo ointment containing neither of the two agents was produced using the analogous procedure.
# Ten mice (Balb-C strain) each were shaved on their upper leg and six scratches in the skin were made with a cannula in an area of 5×5 mm. Subsequently, a cotton bud was used to apply 50 μl of a HSV-1 suspension (Wal strain, 10^8 plaque-forming units/ml). The treatment (twice daily) was initiated four days after infection. The symptoms, “widespread lesions”, “hind leg paralysis”, and survival were recorded in the protocol.
# The result is shown graphically in FIGS. 2a to 2d. […] Triangles indicate the surviving animals in each case, squares the animals with hind leg paralysis, and diamonds the animals with widespread lesions.
# [1] = tested on: herpes simplex virus (Type-1, strain ANG); test: Plaque formation of herpes simplex virus in Calu-6 cells; format: cell-based; conditions: for number of plaques: Calu-6 cells, 48 h
# Method: Human lung carcinoma cells (Calu-6) were infected with 30 plaque-forming units of herpes simplex virus (Type-1, strain ANG) in Linbro plates. Cell culture medium (MEM containing 10% fetal calf serum, 0.85 g/l sodium bicarbonate, and 0.5% carboxymethylcellulose) containing either 0, 5 or 10 μg/ml exo/exo-tricyclo[5,2,1,0^2,6]-9yl-xanthogenate (D609) was added two hours after infection. The cultures were treated with aciclovir at the same time. All samples were processed as quadruplicates. The cells were incubated for 48 h at 37° C. under CO2 gassing (5%). Then the medium was decanted, the cells were fixed with 3% formalin and stained with 0.5% crystal violet. After drying at room temperature, the number of plaques formed was determined.
compound,measurement,setting,value
Nc1nc2c(ncn2COCCO)c(=O)[nH]1 [aciclovir],healing of lesions and paralysis,HSV-1 (Wal strain),almost completely healed
same,survival,HSV-1 (Wal strain),survival rate higher
same,number of plaques,"[1]; aciclovir 0.16 μM alone, not statistically significant (p=0.4)",30±11
same,increase of the effect of aciclovir in cell culture,"[1]; in the presence of low, antivirally ineffective concentrations of the xanthogenate",increased up to five-fold
"S=C(S)OC1CC2CC1C1CCCC21 (stereo not drawn) [D609, exo/exo-tricyclo[5,2,1,0^2,6]-9yl-xanthogenate]",healing of lesions and paralysis,HSV-1 (Wal strain),almost completely healed
same,survival,HSV-1 (Wal strain),survival rate higher
same,number of plaques,"[1]; 5 μg/ml D609 alone, no-D609 control 32.75±11",32±3
same,number of plaques,"[1]; 10 μg/ml D609 alone, no-D609 control 32.75±11",33±6
same,effect on plaque formation,[1]; D609 alone at 5 or 10 μg/ml,no effect

# Source: patent US20060257432A1, “Pharmaceutical formulations of xanthogenates and inhibitors of viral nucelic acid replication” (priority 2003, published 2006)
